{"source": "patent US20230313313A1", "about": "“BIOMARKERS FOR CANCER THERAPY USING MDM2 ANTAGONISTS” (OTSUKA PHARMACEUTICAL CO., LTD., priority 2020, published 2023)", "key": {"[1]": {"tested_on": "SN40R2", "assay": "Protocol A: SN40R2 growth inhibition, sulphorhodamine B (SRB) method", "settings": "72 h, read-out: SN40R2 IC50 (Protocol A)", "method": "Following incubation with the SRB dye at room temperature for 30 min, the plates were washed with 1% acetic acid and left to dry. […] The GI50 was calculated by non-linear regression analysis of the data using Prism v4.0 statistical software."}, "[2]": {"tested_on": "multiple myeloma (MM) cells", "settings": "in vitro and ex vivo; cited from earlier work"}, "[3]": {"tested_on": "OCI-AML3 cells", "assay": "Induction of apoptosis by cleaved caspase-3 cytometry, combination with IAP antagonist", "assay_type": "cell-based, human", "settings": "0.1 μM Compound 1 with 1 μM ASTX660 and 1 ng/ml TNF-alpha, 72 h", "method": "Cleaved caspase-3 staining was recorded in the FL1 (green) channel, with unstained and DMSO control wells being used to set the gated stained and unstained cell populations—allowing the percentage of cells that are apoptotic to be calculated."}, "[4]": {"tested_on": "human leukaemia models", "settings": "by inducing MDM2 degradation; cited from earlier work"}, "[5]": {"tested_on": "cancer cell lines", "settings": "cited from earlier work"}, "[6]": {"tested_on": "MV4-11 cells", "assay": "Alamar Blue proliferation assay, MV4-11 overexpressing SKP2 vs control", "assay_type": "cell-based, human", "settings": "MV4-11 SKP2 OE compared to control", "experimental": "Precision LentiORF Transduction:\nPrecision LentiORF Lentiviral Transduction Particles (Cat. OHS5900-224629438, Dharmacon, UK) were used to overexpress SKP2 in the MV4-11 AML cell line. Stable gene overexpression was established by cellular resistance to blasticidin (5 μg/ml) and was confirmed at the protein level by western blot. The Precision LentiORF control empty vector (Dharmacon, UK) served as a negative control.\nThe number of viable cells was determined by Alamar Blue assay (Bio-Rad, Irvine, CA, USA). All cell lines were grown and assayed in RPMI-1640+10% FBS medium.\nCompounds were diluted first in DMSO and then into serum-free medium, before addition to triplicate wells of the cultured cells to give a 0.1% DMSO final concentration. […] Twenty μl of Alamar Blue™ (AbD Serotec/Bio-Rad) was added to each well and plates were then incubated for 4-6 h at 37° C. in an atmosphere of 5% CO2 and air. Plates were then read at 535 nm (excitation) and 590 nm (emission) on a SpectraMax Gemini reader (Molecular Devices, San Jose, CA, USA)."}, "[7]": {"tested_on": "tumour growth", "settings": "inducing mitochondrial effects of p53; cited from earlier work"}}, "note": "Entries after “also recorded” stand apart in the source; their conditions may differ."}
{"smiles": "CC(C)(O)c1ccc2c(c1)C(=O)N(Cc1ccc(Cl)cc1)[C@@]2(OCC1(CO)CC1)c1ccc(Cl)cc1", "note": "[Example 1, (3R)-3-(4-chlorophenyl)-2-[(4-chlorophenyl)methyl]-3-{[1-(hydroxymethyl)cyclopropyl]methoxy}-6-(2-hydroxypropan-2-yl)-2,3-dihydro-1H-isoindol-1-one]", "values": [{"measurement": "IC50", "setting": "[1]", "value": 7.5, "unit": "µM"}]}
{"smiles": "c1ccc2c(CCNc3ccc(Nc4ccncc4)cc3)c[nH]c2c1", "note": "[JNJ 26854165]", "values": [{"measurement": "activity against multiple myeloma (MM) cells", "setting": "[2]", "value": "potent activity"}]}
{"smiles": "C[C@@H]1CN(CC(=O)N2CC(C)(C)c3nc(CO)c(Cc4ccc(F)cc4)cc32)[C@@H](CN2CCOC[C@H]2C)CN1", "note": "[ASTX660, 1-{6-[(4-fluorophenyl)methyl]-5-(hydroxymethyl)-3,3-dimethyl-1H,2H,3H-pyrrolo[3,2-b]pyridin-1-yl}-2-[(2R,5R)-5-methyl-2-{[(3R)-3-methylmorpholin-4-yl]methyl}piperazin-1-yl]ethan-1-one, reference compound]", "values": [{"measurement": "level of apoptosis (cleaved caspase-3), combination", "setting": "[3]", "value": "sensitises"}]}
{"smiles": "CC(O)(CN1CCNCC1)c1cc(F)c2c(c1)C(=O)N(Cc1ccc(Cl)cc1S(C)(=O)=O)[C@@]2(OCC1(CO)CC1)c1ccc(Cl)cc1", "note": "(stereo partly drawn) [Example 43, (3R)-2-[(4-chloro-2-methanesulfonylphenyl)methyl]-3-(4-chlorophenyl)-4-fluoro-6-[2-hydroxy-1-(piperazin-1-yl)propan-2-yl]-3-{[1-(hydroxymethyl)cyclopropyl]methoxy}-2,3-dihydro-1H-isoindol-1-one]", "values": [{"measurement": "IC50", "setting": "[1]", "value": 2, "unit": "µM"}]}
{"smiles": "CC(C)(O)c1cc(F)c2c(c1)C(=O)N(Cc1ccc(Cl)cc1)[C@@]2(OCC1(CO)CC1)c1ccc(Cl)cc1", "note": "[Example 2, (3R)-3-(4-chlorophenyl)-2-[(4-chlorophenyl)methyl]-4-fluoro-3-{[1-(hydroxymethyl)cyclopropyl]methoxy}-6-(2-hydroxypropan-2-yl)-2,3-dihydro-1H-isoindol-1-one]", "values": [{"measurement": "IC50", "setting": "[1]", "value": 17, "unit": "µM"}]}
{"smiles": "O=C(O)C(F)(F)F.O=C1CCC(N2Cc3c(C#CCCCNC(=O)c4ccc(NC(=O)[C@@H]5NC6(CCCCC6)[C@@]6(C(=O)Nc7cc(Cl)ccc76)[C@H]5c5ccnc(Cl)c5F)cc4)cccc3C2=O)C(=O)N1", "note": "(stereo partly drawn) [LE-004]", "values": [{"measurement": "growth of human leukaemia models in mice", "setting": "[4]", "value": "efficiently inhibited growth"}]}
{"smiles": "CC(C)(C)C[C@@H]1N[C@@H](C(=O)N[C@H]2CC[C@H](O)CC2)[C@H](c2cccc(Cl)c2F)[C@]12C(=O)Nc1cc(Cl)ccc12", "note": "[MI-773]", "values": [{"measurement": "cell growth in cancer cell lines", "setting": "[5]", "value": "potently inhibits cell growth"}]}
{"smiles": "CC1(C)CCC(CN2CCN(c3ccc(C(=O)NS(=O)(=O)c4ccc(NCC5CCOCC5)c([N+](=O)[O-])c4)c(Oc4cnc5[nH]ccc5c4)c3)CC2)=C(c2ccc(Cl)cc2)C1", "note": "[ABT-199, reference compound]", "values": [{"measurement": "effect of SKP2 overexpression on cytotoxicity / sensitivity", "setting": "[6]", "value": "does not modulate sensitivity; also recorded: no difference"}]}
{"smiles": "COC1CC(C(N)=O)CCC1NC(=O)[C@@H]1N[C@@H](CC(C)(C)C)[C@@]2(C(=O)Nc3cc(Cl)ccc32)[C@H]1c1cccc(Cl)c1F", "note": "(stereo partly drawn) [RO-8994]", "values": [{"measurement": "tumour growth", "setting": "[7]", "value": "inhibit tumour growth"}]}
